assay: gradient 5% acetonitrile 3 min, to 50% in 2 min, to 85% in 15 min, held 3 min, 100 µL/min; details: column: Zorbax Extend-C18 2.1 x 50 mm; eluents: water / acetonitrile, 0.1% formic acid
Summary of the method: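 The mobile phases were water and acetonitrile, each with 0.1% formic acid, pumped at 100 μL/min through a Zorbax Extend-C18 column (2.1 × 50 mm, 1.8 μm). Pure standards were injected as mixtures of ~100 molecules and detected by a quadrupole time-of-flight mass spectrometer in positive and negative ionization mode. Retention time came from computationally picked adduct peaks, each inspected by hand.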

| SMILES | RP-LC retention time [s] |
| --- | --- |
| COCCC1CCN(C(=O)CC2CCN(C(C)=O)CC2)CC1 | 626 |
| COc1ccccc1-c1nc(-c2ccc3c(c2)oc(=O)n3C(C)C)no1 | 1090 |
| c1ccc(-c2nc(-c3ccc(OC4CNC4)cc3)no2)cc1 | 686 |
| CCN1CCN(CCNC(=O)C2CCCN(C(=O)c3[nH]c(C)c(C(=O)OC(C)C)c3C)C2)CC1 (centres undefined) | 596 |
| O=C(O)c1cn(-c2cccc(F)c2)nn1 | 652 |
| COC(=O)c1ccc(CN2N=C(C(=O)N3CCC(C)CC3)S(=O)(=O)c3ccccc32)o1 | 891 |
| O=c1c2cnn(-c3ccc(F)cc3)c2ncn1Cc1nc(-c2ccccc2)no1 | 1010 |
| Cc1ccc(Nc2c(-c3ccc(N(C)C)cc3)nc3cnccn23)cc1Br | 990 |
| NS(=O)(=O)c1ccc(NC(=O)Cc2cn(Cc3ccc(F)cc3)c3ccccc23)cc1 | 824 |
| CC1CCN(c2cc(-c3noc(C(=O)NC4CCCCCC4)n3)ccn2)CC1 | 1010 |
| COc1cccc(-n2nnc(-c3nsc(Nc4ccccc4)n3)c2C)c1 | 990 |
| Cc1cc(C)n(-c2nc(CC(=O)Nc3ccccc3F)cs2)n1 | 961 |
| CCC(CC)NS(=O)(=O)c1cc(-c2[nH]ncc2C(=O)N(C)C)oc1C | 659 |
| Cc1nc2nc3c(cn2n1)C(=O)CCC3 | 593 |
| Cc1ccc(NC(=O)C(=O)NC(C)c2ccccc2)cc1C (centres undefined) | 1010 |
| COc1cc2c(cc1CNC(=O)c1cccs1)OCCCO2 | 780 |
| Cn1nccc1C(=O)Nc1ccc(OCc2nnc(-c3ccc(Cl)cc3)o2)cc1 | 864 |
| O=C(Nc1ccc(F)cc1Cl)C1CCN(C(=O)c2cccn2-c2cccnc2)CC1 | 727 |
| CCOc1ccc(C(=O)NC(C(=O)Nc2nc3ccccc3[nH]2)C(C)C)cc1OCC (centres undefined) | 735 |
| Cn1ncc2c3ccccc3n(CCCC(=O)N3CCN(c4ccccc4)CC3)c2c1=O | 918 |
| O=C(Nc1cccc2ccccc12)c1ccccc1 | 923 |
| Cc1nnc(C2CCCN(C(=O)c3ccccc3Cl)C2)s1 (centres undefined) | 652 |
| Cn1nnc2c(Nc3ccc(Br)cc3F)ncnc21 | 761 |

| SMILES | RP-LC retention time [s] |
| --- | --- |
| CC1=NS(=O)(=O)N(Cc2ccccc2)C=C1C(=O)OCc1cccc(C)c1 | 1140 |
| COc1ccc(Cl)cc1S(=O)(=O)N1CCC(c2cc3n(n2)CCCNC3=O)CC1 | 722 |
| O=C(Cn1cc2c(n1)CCCCC2)Nc1ccc(Br)cc1F | 1050 |
| Cn1cc(-c2cc3n(n2)CCC(=O)N3CCCC(=O)Nc2ccccc2F)c2ccccc21 | 844 |
| CC(=O)N1c2ccc(S(=O)(=O)N3CCCCC3)cc2CC1C(=O)NCCN1CCCCCC1 (centres undefined) | 639 |
| Cc1cccc2nc(-c3c(F)cccc3Cl)c(Nc3ccc4c(c3)OCCO4)n12 | 678 |
| O=C(NCc1ccc(-c2noc(-c3n[nH]c4c3CCCC4)n2)s1)C1CC1 | 786 |
| Cc1c(C(=O)NC2CCCCC2)cnn1-c1cc(-c2nc(C3CC3)no2)ccn1 | 1060 |
| Cc1cc(C)cc(C(=O)NC(C)C(=O)Nc2nc3ccccc3[nH]2)c1 (centres undefined) | 688 |
| O=C(c1ccc2c(c1)CCC(=O)N2Cc1ccccc1)N1CCN(c2ccc(F)cc2)CC1 | 923 |
| Cn1nccc1-c1cccc(-c2noc(COc3ccc(Cl)cc3)n2)c1 | 1120 |
| O=C(NCC1CCCO1)C1CCN(c2ncccc2-c2nc(-c3ccccc3)no2)CC1 (centres undefined) | 870 |
| COc1ccc(Cl)cc1NC(=O)N1CCC2(CC1)NC(=O)c1cc(C)ccc1N2C | 895 |
| CCC[C@@H](NC(=O)N1C(=O)C(CC)(CC)[C@@H]1Oc1ccc(C(=O)N2CCN(C)CC2)cc1)c1ccc2c(c1)OCO2 | 919 |
| COc1cc(NC(=O)N2CCCC2c2nncn2C2CCCC2)cc(OC)c1 (centres undefined) | 677 |
| COc1ccc2c(c1)c1ccc3c(c1n2C)C(=O)C=CC3=O | 1120 |
| O=C(O)c1cc(-c2ccc3c(c2)OCO3)nc2cc3c(cc12)OCCO3 | 690 |
| Cn1nc(-c2nc(C3CC3)no2)c2c1CCN(C(=O)Nc1ccccc1)C2 | 809 |
| Cc1ccc(NC(=O)C2CCN(S(=O)(=O)c3cn(C)cn3)CC2)cc1C | 734 |
| O=C(C1=CN(c2ccc3c(c2)OCCO3)c2cc(F)ccc2S1(=O)=O)N1CCOCC1 | 750 |
| Cc1cc(N(CCCl)CCCl)ccc1/C=N/NC(=O)Cc1cc(=O)oc2cc(O)ccc12 | 862 |
| CC(C)NC(=O)c1ccc(OCC2CCCN(C(=O)c3ccc(Br)o3)C2)cc1 (centres undefined) | 876 |
| CCCc1nnsc1C(=O)NCC(c1cccs1)S(=O)(=O)c1ccc(C)cc1 (centres undefined) | 921 |

| SMILES | RP-LC retention time [s] |
| --- | --- |
| Cc1ccc(-n2c(N3CCC(C(=O)NCC(C)C)CC3)nc3ccsc3c2=O)cc1 | 821 |
| O=C(CSc1nccn1Cc1ccco1)NC1CCCCC1 | 589 |
| O=C(CCC1CCCN(C(=O)Nc2ccc(Cl)cc2)C1)NCc1ccccc1 (centres undefined) | 884 |
| COC(=O)C1CCN(C(=O)c2csc(Nc3ncccn3)n2)CC1 | 644 |
| COc1cccc(N2CCN(CC(=O)N3CCC(C(N)=O)CC3)CC2)c1 | 582 |
| CCS(=O)(=O)N1CC(=O)N(c2ccc(Cl)cc2C)C(C)(C(=O)NCc2ccccc2)C1 (centres undefined) | 906 |
| O=C(NCCCNc1nc(Nc2cccc(NC(=O)N3CCCC3)c2)ncc1I)c1cccs1 | 691 |
| CC(=O)c1ccc(OC(=O)c2cc3c(C)nn(-c4cccc(F)c4)c3s2)cc1 | 779 |
| CCCSCCCNC(=O)COc1ccccc1-c1nnc(-c2ccccc2)o1 | 1160 |
| Cc1noc(C2CN(CCc3ccccc3)CC23CCCC3)n1 (centres undefined) | 674 |
| CCn1ccc(C(=O)Nc2ccc3ncnc(N4CCCC4)c3c2)n1 | 616 |
| COCCNC(=O)Nc1nc(CSCc2cc(OC)cc(OC)c2)cs1 | 734 |
| COc1cccc(NC(=O)C2CCN(c3cc(N4CCCC4)ncn3)CC2)c1 | 652 |
| COc1ccc(Cl)cc1NC(=O)CSc1nc(-c2ccccc2C)ns1 | 1230 |
| COc1ccc(OCC(=O)N2CCC(Nc3cccnc3)C2)cc1 (centres undefined) | 726 |
| CC(C)(C)c1noc(-c2ccnc(-n3cnc(C(=O)N4CCSCC4)c3)c2)n1 | 952 |
| COc1ccc(-c2noc(C3CC(=O)N(c4ccc(F)cc4)C3)n2)cc1 (centres undefined) | 912 |
| Cc1cc(-c2nnc(-c3ccccc3)o2)c(C)n1CC(=O)NCc1ccccc1Cl | 966 |
| CC(=O)c1cccc(NC(=O)NC(c2ccccc2)c2nnc(-c3ccccc3)o2)c1 (centres undefined) | 892 |
| CCc1c(C(=O)O)nnn1Cc1cccc(OC)c1 | 687 |
| O=C(NCc1ccccn1)C1=C2CCCN2c2ccc(F)cc2S1(=O)=O | 1030 |
| COc1ccc(CC(=O)Nc2ccc(-c3nc(C)no3)cc2)cc1OC | 735 |
| CCC(=O)N1CCc2cc(-c3ccc(C(=O)NCCCN4CCOCC4)cc3)ccc21 | 628 |

| SMILES | RP-LC retention time [s] |
| --- | --- |
| CCOc1ccccc1NC(=O)N1CCN(c2ccc(=O)n(-c3ccc(C)cc3)n2)CC1 | 915 |
| COc1ccc(-c2cc(C(=O)Nc3ccc(Cl)cc3)nn2C2CCS(=O)(=O)C2)cc1 (centres undefined) | 1020 |
| COc1cccc(NC(=O)Cn2cccc2-c2nnc(-c3ccccc3)o2)c1 | 940 |
| Cc1cccc(NC(=O)N2CCCC2c2nc(-c3ccccc3)no2)c1 (centres undefined) | 984 |
| Cc1nc(Nc2ccc(F)cn2)sc1C(=O)N1CCC(C(N)=O)(N2CCCCC2)CC1 | 590 |
| COc1ccc(-c2nc(C)cc(C)c2CNC(=O)c2ccc3c(c2)OCO3)cc1 | 632 |
| O=S(=O)(Cc1ccccc1)N1CCC(Cc2nc(-c3cccnc3)n[nH]2)C1 (centres undefined) | 628 |
| O=C(NCc1ccccc1)N1CCN(Cc2nc3cc(-c4ccccc4)ccc3o2)CC1 | 825 |
| COc1ccc(NC(=O)N2CCC3(C2)C(=O)N(C)c2ccccc23)cc1OC (centres undefined) | 808 |
| CC(C)(C)NC(=O)N1CCC(CNC(=O)c2ccccn2)CC1 | 644 |
| CN1CCN(CCCNC(=O)CCc2cn(-c3ccccc3)nc2-c2ccc3c(c2)OCO3)CC1 | 614 |
| CC(NC(=O)c1ccc2c(c1)OCO2)C(=O)Nc1nc2ccccc2[nH]1 (centres undefined) | 623 |
| O=C(NCc1cccs1)C1CCN(c2cnc(N3CCCCCC3)nc2)CC1 | 732 |
| CC(=O)Nc1ccc(NC(=O)Cn2ccn3nc(-c4ccc(F)cc4)c(CO)c3c2=O)cc1 | 670 |
| CCN1CCN(C(=O)CN2C(=O)CSc3ccc(C(=O)N4CCCCC4)cc32)CC1 | 608 |
| CCOc1ccc(C(=O)N2CCC3(CC2)C(=O)N(C)c2ccccc23)cc1OCC | 842 |
| CC1CCCN(c2ccc(-c3noc(CN4CCN(C(C)C)CC4)n3)cn2)C1 (centres undefined) | 628 |
| O=C(c1ccc2nc[nH]c2c1)N1CCCn2nc(-c3ccc(Cl)cc3)cc2C1 | 643 |
| Cc1cc(C)n(-c2nc(CC(=O)Nc3nc(-c4ccccc4)cs3)cs2)n1 | 1120 |
| CC(C)CN1CCN(C(=O)C2CC(=O)N(CCc3ccccc3)C2)CC1 (centres undefined) | 580 |

Source: the METLIN SMRT retention time set (Domingo-Almenara et al. 2019)
